Measured values as given in paper PMC11249953, “c-KIT inhibitors reduce pathology and improve behavior in the Tg(SwDI) model of Alzheimer’s disease” (Life Science Alliance, 2024).
Values joined by “and” are separate entries in the source; they are usually repeats but may differ in a detail not shown here. Equal values may be shown once.

How the values were obtained:
MTOR = molecular target: T1, MTOR (Homo sapiens, UniProt P42345); assay: KINOMEscan competition binding, MTOR; settings: 10 µM compound
T1 construct: DNA label for qPCR read-out (T7 phage fusion or DNA tag); purchased Eurofins DiscoverX Corporation; host or cells: T7 phage in E. coli (BL21-derived) or HEK-293
Protocol: The KINOMEscan screening platform (Eurofins DiscoverX Corporation) was performed using active site-directed competition binding assay to quantitatively measure interactions between BK40143 and BK40197 and more than 450 human kinases and disease relevant mutant variants. […] Screening “hits” are identified by measuring the amount of kinase captured in test (BK40143 and BK40197) versus control samples by using a quantitative and ultra-sensitive qRT-PCR method that detects the associated DNA label. BK40143 and BK40197 were screened at 10 µM concentration, and results for primary screen binding interactions were reported as “% Ctrl” (POC), where lower numbers indicate stronger hits and calculated as follows: [test compound signal−positive control signal/negative control signal−positive control signal]×100
negative control = DMSO (100% Ctrl)
positive control = control compound (0% Ctrl)
Based on screening data from of profiled compounds, a proportional relationship between primary screening results and corresponding compound/target affinities can be described as binding constants (Kd values) for the indicated ranges of POC values with tighter binding (higher affinity) interactions associated with lower POC values and weaker binding (lower affinity) associated with higher POC values. Briefly, kinase-tagged T7 phage strains were grown in parallel in 24-well blocks in an E. coli host derived from the BL21 strain. E. coli were grown to log-phase and infected with T7 phage from a frozen stock (multiplicity of infection = 0.4) and incubated with shaking at 32°C until lysis (90–150 min). The lysates were centrifuged (6,000g) and filtered (0.2 μm) to remove cell debris. The remaining kinases were produced in HEK-293 cells and subsequently tagged with DNA for qRT-PCR detection. Streptavidin-coated magnetic beads were treated with biotinylated small molecule ligands for 30 min at RT to generate affinity resins for kinase assays. The liganded beads were blocked with excess biotin and washed with blocking buffer (1% BSA, 0.05% Tween 20, 1 mM DTT; SeaBlock [Pierce]) to remove unbound ligand and to reduce non-specific phage binding. Binding reactions were assembled by combining kinases, liganded affinity beads, and test compounds in 1x binding buffer (20% 0.17x PBS, 0.05% Tween 20, 6 mM DTT; SeaBlock). Test compounds were prepared as 100x stocks in 100% DMSO and directly diluted into the assay. All reactions were performed in polypropylene 384-well plates in a final volume of 0.02 ml. The assay plates were incubated at RT with shaking for 1 h and the affinity beads were washed with wash buffer (1x PBS, 0.05% Tween 20). […] The kinase concentration in the eluates was measured by qRT-PCR.

TgAPP mice = assay: Morris water maze, TgAPP mice; format: in vivo, mouse; design: Platform Distance: unit not given beside the values; Total Distance / Quad Time / Quad Distance / Trial 1 D4 / Trial 1 D4 AVG: unit not given here
Protocol: The Morris water maze was performed using a water bath 6 ft in diameter and filled with roughly 1 ft of water. The maze was divided into four quadrants, each with a visual stimulus positioned on the wall of the maze in the center of the quadrant arc. A clear platform was placed in one quadrant just beneath the surface of the water. Mice were then placed in a random non-platform quadrant and allowed to swim freely for 60 s (time was stopped and recorded if the mouse found the platform) before being placed on the platform for 15 s and returned to their cage. This was repeated for each of the three quadrants each day for 4 d. On the 5th d, the platform was removed and mice were placed in the quadrant opposite of where the platform had been and allowed to swim freely for 1 min before being returned to their cage. Time spent in the correct quadrant, latency to the platform, number of platform entries, and number of quadrant entries were recorded.

beclin-1 in TgAPP mice = assay: Western blot for beclin-1 in brain; format: in vivo, mouse; settings: BK40143 5 mg/kg, BK40197 45 mg/kg, vs DMSO
Protocol: Brain hemispheres from treated and untreated animals were lysed in 1x STEN buffer and protein concentrations were measured via BCA assay. Samples were normalized to 1 μg/μl and added to 2x Laemmli loading buffer + β-mercaptoethanol and boiled for 10 min to denature the protein. 15 μg of sample were then loaded in 4–12% Bis–Tris gels with MES buffer and electrophoresed, before transfer to a nitrocellulose membrane, where they were blocked with 5% dry milk in 1x TBST and incubated overnight with an anti-Beclin-1 primary antibody (cat. #3739S; Cell Signaling) or a phospho-c-KIT antibody (cat. #44-496G; Invitrogen). The next day, the membrane was washed and treated for 1 h with a goat anti-rabbit HRP-linked secondary followed by SuperSignal West Dura Extended Duration Substrate (cat. #37071; Thermo Fisher Scientific) and imaged on an Amersham Imager 600. This procedure was repeated the next day with an anti-mouse actin primary as a loading control.

[1] = MWM Probe, single animal values, listed as 197
[2] = MWM Probe, single animal values, listed as 197, in s (unit assumed)
[3] = MWM training, Day 1, single animal values, listed as 197
[4] = MWM training, Day 2, single animal values, listed as 197
[5] = MWM training, Day 3, single animal values, listed as 197
[6] = MWM training, Day 4, single animal values, listed as 197

SMILES: Cc1cccc(-c2cc3nccc(N4CCOCC4)c3s2)c1 [BK40197]
- inhibition at 10 µM (MTOR): 90.7%
- remaining binding at 10 µM (MTOR; lower = stronger binding, read-out: MTOR %Ctrl @ 10000nM (POC)): 9.3%
- Platform Distance (TgAPP mice; [1]): 0 and 0.487 and 0.423 and 1.393 and 0.128 and 0.196 and 0.299 and 0.391
- Platform Entries (TgAPP mice; [1]): 0 and 3 and 4 and 8 and 1 and 2
- Quad Distance (TgAPP mice; [1]): 2.071 and 3.416 and 4.643 and 7.432 and 1.451 and 3.963 and 3.288 and 3.437 and 3.953
- Quad Distance/Total (TgAPP mice; [1]): 0.09759 and 0.2373 and 0.3151 and 0.3933 and 0.09964 and 0.2157 and 0.2602 and 0.2506 and 0.2518
- Quad Entries (TgAPP mice; [1]): 3 and 7 and 8 and 16 and 5 and 6 and 4
- Quad Time (TgAPP mice; [1]): 9.1 and 12.9 and 22.8 and 25.1 and 6.9 and 11.1 and 16.2 and 14.3 and 14.6
- Total Distance (TgAPP mice; [1]): 21.221 and 14.396 and 14.736 and 18.898 and 14.562 and 18.377 and 12.635 and 13.714 and 15.701
- Platform Latency (TgAPP mice; MWM Probe, single animal values, listed as 197, in s): 60 and 2.1 and 31.3 and 11.1 and 21.2 and 56 and 26.7 and 7.2
- Platform Time (TgAPP mice; [2]): 0 and 1.9 and 1.5 and 5.2 and 0.3 and 0.7 and 1 and 1.4
- Quad Latency (TgAPP mice; [2]): 4.7 and 3 and 16.9 and 2.3 and 4.3 and 3.9 and 21.1 and 6.8 and 3.2
- Quad Time per Entry (TgAPP mice; [2]): 3.033 and 1.843 and 2.85 and 1.569 and 1.38 and 1.85 and 4.05 and 3.575 and 1.825
- Training Day 1 AVG (TgAPP mice; MWM training, Day 1, group average): 45.4333
- Training Day 1, mean of the three trials per animal (TgAPP mice; MWM training, Day 1, per-animal mean, listed as 197): 43.78 and 60 and 43.62 and 54.8167 and 46.8067 and 44.7133 and 26.0367 and 29.1267
- Training Day 1, trial 1 (TgAPP mice; [3]): 60 and 47.21 and 31.28 and 46.64
- Training Day 1, trial 2 (TgAPP mice; [3]): 11.34 and 60 and 54.03 and 25.14 and 29.4
- Training Day 1, trial 4 (TgAPP mice; [3]): 60 and 23.65 and 44.45 and 26.39 and 14.14 and 21.69 and 11.34
- Training Day 2 AVG (TgAPP mice; MWM training, Day 2, group average): 47.2204
- Training Day 2, mean of the three trials per animal (TgAPP mice; MWM training, Day 2, per-animal mean, listed as 197): 13.1033 and 49.5833 and 60 and 36.82 and 56.3433 and 52.21 and 40.7533 and 56.17
- Training Day 2, trial 1 (TgAPP mice; [4]): 7.57 and 60
- Training Day 2, trial 2 (TgAPP mice; [4]): 5.62 and 60 and 36.25 and 49.03 and 36.63 and 55.69
- Training Day 2, trial 4 (TgAPP mice; [4]): 26.12 and 28.75 and 60 and 14.21 and 6.57 and 48.51
- Training Day 3 AVG (TgAPP mice; MWM training, Day 3, group average): 28.2515
- Training Day 3, mean of the three trials per animal (TgAPP mice; MWM training, Day 3, per-animal mean, listed as 197): 11.39 and 34.5433 and 18.6367 and 42.7367 and 27.2267 and 23.27 and 38.7467 and 28.4767 and 29.2367
- Training Day 3, trial 1 (TgAPP mice; [5]): 9.97 and 10.56 and 13.44 and 8.21 and 13.9 and 27.12 and 60 and 23.21 and 11.51
- Training Day 3, trial 2 (TgAPP mice; [5]): 6.2 and 40.75 and 11.22 and 60 and 7.78 and 16.82 and 30.27 and 28.53 and 34.18
- Training Day 3, trial 4 (TgAPP mice; [5]): 18 and 52.32 and 31.25 and 60 and 25.87 and 25.97 and 33.69 and 42.02
- Trial 1 D4 AVG (TgAPP mice; MWM training, Day 4, Trial 1, group average): 16.0867
- Trial 1 D4 (TgAPP mice; MWM training, Day 4, Trial 1, single animal values listed by group, listed as 197): 29.9 and 18.58 and 17.08 and 9.97 and 12.28 and 11 and 6.82 and 20 and 19.15
- Training Day 4 AVG (TgAPP mice; MWM training, Day 4, group average): 27.9559
- Training Day 4, mean of the three trials per animal (TgAPP mice; MWM training, Day 4, per-animal mean, listed as 197): 18.2367 and 14.52 and 22.8833 and 26.0267 and 20.9367 and 33.48 and 29.6433 and 39.9233 and 45.9533
- Training Day 4, trial 1 (TgAPP mice; [6]): 33 and 13.59 and 44.97 and 60 and 41.71 and 20.44 and 36.65
- Training Day 4, trial 2 (TgAPP mice; [6]): 17.08 and 9.97 and 12.28 and 11 and 6.82 and 20 and 19.15 and 29.9 and 18.58
- Training Day 4, trial 4 (TgAPP mice; [6]): 4.63 and 20 and 11.4 and 7.08 and 14.28 and 60 and 9.78 and 53.22 and 59.28
- Morris water maze training trials: time to locate the platform (TgAPP mice; TgAPP mice, BK40143 5 mg/kg, BK40197 45 mg/kg IP, 6 wk, vs DMSO): locate the platform significantly quicker on later training trials
- beclin-1 levels in brain (Western blot) (beclin-1 in TgAPP mice): significant increases in levels of beclin-1
